Reference: US4668681A, “2-(4-Phenylpiperazinylethyl) anilines” (Societe Cortial, S.A., priority 1981, dated 1987)
In brackets after ≈: the same amount, converted by molar mass.

Experiments:
[1] = Lethality (LD50) by oral administration in the Swiss mouse; details: in vivo, 20% solution in Tween, 14 days observation
Procedure: The lethality produced by the compounds of this invention was measured in the Swiss mouse free from specific pathogenic organisms.

[2] = test system: isolated ileum of the guinea pig; assay: Antihistaminic activity in vitro: inhibition of histamine-induced contractions of isolated ileum; type: cell-based; details: Cavia porcellus, histamine 1×10^-8 g/l, bathing method, read-out: IC50 (concentration producing 50% inhibition of contractions induced by histamine)
Procedure: The antihistaminic activity was measured in vitro by measuring the concentration which produced 50% inhibition of the contractions induced by histamine (1×10^-8 g/l) in the isolated ileum of the guinea pig (IC50).

male Sprague-Dawley rats = assay: Antiallergic activity: passive cutaneous anaphylaxis test; type: in vivo; details: oral, suspension with Tween 80, ten minutes before the releasing injection, rat; read-out: ED50 (percentage decrease of the amount of Evans blue diffused in the papule)
Procedure: The antiallergic activity was determined by the passive cutaneous anaphylaxis test in the following manner. A quantity of 0.1 ml of serum containing IgE was administered intradermally to male Sprague-Dawley rats. The serum was prepared by sensitizing Sprague-Dawley rats by an intraperitoneal injection of ovalbumin and a suspension of Bordetella pertussis followed after 20 days by a second injection of ovalbumin. 24 Hours after administration of the serum, 0.5 ml of a solution containing 8.25 mg/kg of ovalbumin and 26.4 mg/kg of Evans blue in a pH 7.05 buffer was administered intravenously. After 30 minutes the animals were sacrificed. Each papule was dissected, weighed and incubated for four days at 37° C. in 15 g of formamide. The amount of Evans blue contained in each papule was determined by measuring the optical density of the mixture. The product to be tested was administered orally in a homogenous suspension in the presence of Tween 80, ten minutes before the releasing injection. Its activity is evaluated by the percentage decrease of the amount of Evans blue which has diffused in the papule.

## Nc1ccccc1CCN1CCN(c2ccccc2)CC1 [Example 1, 2-(4-phenylpiperazinylethyl)aniline]
[1]
  LD50 at 336 h: 1180 mg/kg
[2]
  IC50: 6.3 µg/mL (≈ 22.4 µM)
Male Sprague-Dawley rats
  ED50: 5.11 mg/kg
